# Columns and labels:
# [1] = test system: Endogenous Csp-6 in human breast cancer cell line, MCF7; assay: Endogenous Csp-6 specific activity in treated MCF7 extract; format: cell-based; conditions: MCF7 extract treated 48 hours; for Endogenous Csp-6 Specific Activity: control 6.34 (0.02); for Csp-6 activity remaining (% of control): control 100%
# [2] = test system: recombinant active caspase-6 (R-Csp-6); assay: CIF activity: protein extracts of treated neurons added to recombinant active caspase-6 in vitro (Ac-VEID-AFC); format: cell-based, human
# Method: (§1) Primary cultures of neurons were established from 12-14 week old foetal brains, according to ethical regulations of the Medical Research Council of Canada and approved by McGill University. Institutional Review Board. Briefly, cortical and subcortical brain tissue is minced, dissociated in 0.25% trypsin for 15 minutes at 37° C. Trypsin is inactivated with 10% serum and 0.1 mg/ml deoxyribonuclease I added before triturating to completely dissociate the cells. The mixture is successively passed through 130 μm and 70 μm filters, and cells plated at 3×10^6/ml on poly-L-lysine coated tissue culture dishes or ACLAR™ (33C; 5 mm; Allied Chemical Corp.) coverslips in phenol-free minimal essential media in Earle's balanced salt solution containing 0.225% sodium bicarbonate, 1 mM sodium pyruvate, 2 mM L-glutamine, 0.1% dextrose, 1×antibiotic Pen-Strep (all products from Gibco-BRL) and 5% decomplemented fetal bovine serum (Hyclone).
# (§2) All were obtained from Sigma and dissolved as stock solutions in 100% ethanol. Dilutions of 1/1000 was made in culture media immediately before use. The media was changed with fresh solution every 48 hours. Controls received an equivalent amount of ethanol.
# (§3) Cycloheximide (Sigma) was made at 1 mg/ml in distilled-water and diluted at 5 and 20 μg/ml in culture media before treatment. To assess the efficiency of cycloheximide as an inhibitor of translation at these concentrations, neurons were labeled with 100 μCi/ml of ^35S-methionine (Easy Tag NEN-DUPONT) for 6 hours in the absence or presence of cycloheximide. Proteins were extracted in NP-40 lysis buffer, immunoprecipitated and separated by 10% polyacrylamide gel electrophoresis. To test the effect of cycloheximide on the neuroprotective effect of 17-β-estradiol, neurons were microinjected with R-Csp-6 and incubated with 10 nM 17-β-estradiol in the absence or presence of cycloheximide for 48 hours. To test the effect of cycloheximide on 17-β-estradiol induction of CIF, neurons were incubated with 10 nM 17-β-estradiol in the absence or presence of cycloheximide for 6 hours.
# After treatment, neuron proteins were extracted in caspase lysis buffer (50 mM Hepes pH 7.4, 0.1% CHAPS, 1 mM DTT, 0.1 mM EDTA) for 10 minutes on ice followed by microcentrifugation to remove insoluble material. Protein concentration was determined by bicinchoninic acid (BCA) assay (Pierce). Proteins (10 μg/100 μl assay) were added to 10 ng recombinant active caspase (Pharmingen or BioMol) in caspase assay buffer (20 mM Pipes, 30 mM NaCl, 10 mM DTT, 1 mM EDTA, 0.1% CHAPS, 10% sucrose pH 7.2) and 68.5 μM Ac-VEID-AFC for caspase-6, Ac-DEVD-AFC for caspase-3 and caspase-7, and Ac-IETD-AMC for caspase-8 (BioMol). The caspase-6 activity was measured at 37° C. every 2 minutes for 1 hour to determine the linear range of activity. Based on an AFC or AMC standard curve, the amount of released AFC or AMC was measured and the specific activity of the caspase determined as nmoles released AFC or AMC/pg protein/minute.
# [3] = test system: R-Csp-6-mediated apoptosis in primary cultures of human neurons; assay: TUNEL cell death of primary human neurons microinjected with recombinant active caspase-6; format: cell-based; conditions: for effect on 17-β-estradiol neuroprotective effect against caspase-6: 10 nM added to 17-β-estradiol
# Method: as §1
# The cells attach rapidly and establish intricate neuritic networks within 3 days. Fluorodeoxyuridine (FdU) is added at 1 mM to prevent proliferation of dividing cells. Typically, the culture is composed of 90-95% neurons and 5-10% astrocytes that survive in culture for 4-6 weeks. Experiments on neurons and astrocytes were conducted at 10 days of culture.
# Glass micropipettes of 1.0 mm OD and 0.5 mm ID thin-walled glass capillaries with microfilaments (Borosilicate with filament MTW100F-4, World Precise Instrument Co.) were pulled with a Flaming/Brown micropipette puller (P-87) with a tip diameter of […]. Recombinant active caspase-6 or caspase-3 (R-Csp-6 and R-Csp-3 from Pharmingen) were prepared in caspase active buffer containing 20 mM piperazine-N,N′-βis-(2-ethanesulfonic acid) (PIPES), 100 mM NaCl, 10 mM dithiothreitol (DTT), 1 mM EDTA, 0.1% 3-[(3-cholamidopropyl)-dimethylammonio]-2-hydroxy-1-propanesulfonic acid (CHAPS), 10% sucrose, pH 7.2. R-Csp-6 was co-injected with Dextran Texas Red (DTR; at 100 μg/ml) (Cedarlane Laboratories Ltd.) as a fluorescent marker to recognize injected neurons. […] Microinjections were done with the Eppendorf Microinjector 5246 and MIS-5000 Burleigh micromanipulator; injection pressure of 100 hPa, compensation pressure of 50 hPa, and injection time of 0.1 s. The injected volume was 1 nl/shot.
# Neurons were fixed in fresh 4% paraformaldehyde/4% sucrose in PBS and permeabilized with 0.1% Triton X-100 in 0.1% sodium citrate. Cell death was detected by TUNEL (TdT-mediated dUTP Nick End Labeling) using the Cell Death Kit I (Roche Molecular Biochemicals) as described by the manufacturer. The percentage of neuronal cell death was determined by the ratio of the number of DTR-TUNEL-double-positive neurons over the total number of DTR-positive neurons.
# as §2
# as §3, with “hours.” for “hours. To test the effect of cycloheximide on 17-β-estradiol induction of CIF, neurons were incubated with 10 nM 17-β-estradiol in the absence or presence of cycloheximide for 6 hours.”
# [4] = test system: R-Csp-6; assay: R-Csp-6 specific activity in presence of treated MCF7 extract; format: cell-based, human; conditions: MCF7 extract treated 48 hours; for R-Csp-6 Specific Activity: control 6.15 (0.7); for R-Csp-6 activity remaining (% of control): control 100%
# Method: After treatment, neuron proteins were extracted in caspase lysis buffer (50 mM Hepes pH 7.4, 0.1% CHAPS, 1 mM DTT, 0.1 mM EDTA) for 10 minutes on ice followed by microcentrifugation to remove insoluble material. Protein concentration was determined by bicinchoninic acid (BCA) assay (Pierce). […] Based on an AFC or AMC standard curve, the amount of released AFC or AMC was measured and the specific activity of the caspase determined as nmoles released AFC or AMC/pg protein/minute.
# [5] = test system: endogenous neuronal caspase-6; assay: Endogenous caspase-6 activity in treated neurons; format: cell-based, human; conditions: neurons treated for 48 hours
# Method: as §1, with “(Hyclone). […] All were obtained from Sigma and dissolved as stock solutions in 100% ethanol. Dilutions of 1/1000 was made in culture media immediately before use. […] Protein concentration was determined by bicinchoninic acid (BCA) assay (Pierce). […] Based on an AFC or AMC standard curve, the amount of released AFC or AMC was measured and the specific activity of the caspase determined as nmoles released AFC or AMC/pg protein/minute.” for “(Hyclone).”
# [6] = test system: caspase-3-mediated astrocytic cell death; assay: TUNEL cell death of human astrocytes microinjected with caspase-3; format: cell-based; conditions: 10 nM
# [7] = test system: Human astrocytes extracts, CIF activity; assay: CIF activity in extracts of treated human astrocytes; format: cell-based; conditions: 10 nM, 6 hours
# [8] = test system: protein translation in neurons; assay: 35S-methionine labelling of neurons to assess inhibition of translation; format: cell-based, human; conditions: 5-20 μg/ml
# Method: as §3
# [9] = 10 μM with 10 nM 17-β-estradiol
structure (smiles),measurement,setting,value
C[C@]12CC[C@@H]3c4ccc(O)cc4CC[C@H]3[C@@H]1CC[C@H]2O [17-α-estradiol],Endogenous Csp-6 Specific Activity,[1]; 10 nM,7.13 (0.06) pmoles/μg protein/min.
same,Csp-6 activity remaining (% of control),[1]; 10 nM,112%
same,inhibition of active caspase-6 by extracts from treated neurons,"[2]; 1, 10, or 100 nM, neurons treated 6 hours","neither 1, 10, or 100 nM 17-α-estradiol significantly inhibit active caspase-6"
same,protection against R-Csp-6,"[3]; 10 nM, 48 hours, 5 pg R-Csp-6/cell",do not protect significantly
same,R-Csp-6 Specific Activity,[4]; 10 nM,7.19 (0.01) nmoles/μg protein/min.
same,R-Csp-6 activity remaining (% of control),[4]; 10 nM,117%
C[C@]12CC[C@@H]3c4ccc(O)cc4CC[C@H]3[C@@H]1CC[C@@H]2O [17-β-estradiol],Endogenous Csp-6 Specific Activity,[1]; 1 nM,4.02 (0.02) pmoles/μg protein/min.
same,Csp-6 activity remaining (% of control),[1]; 1 nM,63%
same,Endogenous Csp-6 Specific Activity,[1]; 10 nM,4.84 (0.03) pmoles/μg protein/min.
same,Csp-6 activity remaining (% of control),[1]; 10 nM,76%
same,Endogenous Csp-6 Specific Activity,[1]; 100 nM,5.06 (0.01) pmoles/μg protein/min.
same,Csp-6 activity remaining (% of control),[1]; 100 nM,80%
same,endogenous caspase-6 activity in treated neurons,[5],inhibits endogenous caspase-6 activity
same,inhibition of recombinant active caspase-6 in vitro by neuronal protein extracts from treated neurons,[2],inhibit recombinant active caspase-6 in vitro
same,inhibition of the activity of R-Csp-6 by extracts from treated neurons,"[2]; neurons treated 6 hours, 1-100 nM, 10 μg protein",40-60%
same,time of exposure at which CIF activity is maximal,[2]; time response curve,1 h
same,time of exposure to neurons until CIF activity is induced,[2]; time response curve,≤ 10 min
same,level of apoptosis of microinjected neurons (TUNEL),"[3]; 10 nM, 48 hours, 5 pg R-Csp-6/cell, R-Csp-6 alone 50%",20%
same,protection against caspase-6,"[3]; 10 nM, time study, until 8 days",50%
same,protection against caspase-6 mediated apoptosis,[3]; 0.01 or 0.1 nM,not 0.01 or 0.1 nM
same,protection against caspase-6 mediated apoptosis,[3]; 1 to 100 nM,significant protection
same,exposure time at which neuronal apoptosis is decreased to maximal levels,"[3]; hormone washed away, incubated until 48 hours",10 min
same,R-Csp-6 Specific Activity,[4]; 1 nM,3.82 (0.04) nmoles/μg protein/min.
same,R-Csp-6 activity remaining (% of control),[4]; 1 nM,62%
same,R-Csp-6 Specific Activity,[4]; 10 nM,3.25 (0.03) nmoles/μg protein/min.
same,R-Csp-6 activity remaining (% of control),[4]; 10 nM,53%
same,R-Csp-6 Specific Activity,[4]; 100 nM,4.30 (0.1) nmoles/μg protein/min.
same,R-Csp-6 activity remaining (% of control),[4]; 100 nM,70%
same,prevention of caspase-3 mediated astrocytic cell death,[6],could not prevent
same,CIF activation in astrocytes,[7],CIF is not activated in astrocytes
"CC/C(=C(/CC)c1ccc(O)cc1)c1ccc(O)cc1 [DES, diethylstilbesterol]",effect on 17-β-estradiol induction of CIF,[2]; 10 nM added to 17-β-estradiol,inhibits 17-β-estradiol induction of CIF
same,induction of CIF in neurons,"[2]; 10 nM, alone",Neither DES nor EE induce CIF
same,effect on 17-β-estradiol neuroprotective effect against caspase-6,[3]; 48 hours,inhibits
same,induction of neuroprotection in neurons,"[3]; 10 nM, alone, 48 hours",nor induce neuroprotection
C[C@@H]1C[C@@H]([C@H](O)CC2CC(=O)NC(=O)C2)C(=O)[C@@H](C)C1 [cycloheximide],effect on 17-β-estradiol induction of CIF,"[2]; 5-20 μg/ml with 10 nM 17-β-estradiol, 6 hours",no effect
same,protein translation in neurons,[8],greatly inhibit protein translation
same,effect on 17-β-estradiol-mediated neuroprotection,"[3]; 5-20 μg/ml with 10 nM 17-β-estradiol, 48 hours",no effect
CC/C(=C(\c1ccccc1)c1ccc(OCCN(C)C)cc1)c1ccccc1 [tamoxifen],effect on 17-β-estradiol induction of CIF,[2]; 10 nM added to 17-β-estradiol,inhibits 17-β-estradiol effect
same,block of 17-β-estradiol induced CIF activation,[2]; [9],efficiently blocked
same,effect on 17-β-estradiol neuroprotective effect against caspase-6,[3]; 48 hours,inhibits 17-β-estradiol effect
same,block of neuroprotective function of 17-β-estradiol against caspase-6,[3]; [9],efficiently blocked

# Reference: US20030108964A1, “Caspase-inhibitory-factor(cif)and uses thereof” (priority 2002, published 2003)
